Measured values: patent US9409892B2, “4-hydroxy-isoquinoline compounds as HIF hydroxylase inhibitors” (FIBROGEN, INC., priority 2012, dated 2016)

Legend:
[1] = biological target: PHD1 (EGLN2) (Homo sapiens (Human), UniProt Q96KS0); test: HIF-PH assay (14CO2 capture), PHD1 enzyme inhibition; format: biochemical; settings: Table 1; for IC50: individual measurement, read-out: IC50 (μM) PHD1; for PHD2/PHD1: ratio of the IC50 of the compound for each enzyme
[2] = biological target: PHD2 (EGLN1) (Homo sapiens (Human), UniProt Q9GZT9); test: HIF-PH assay (14CO2 capture), PHD2 enzyme inhibition; format: biochemical; settings: Table 1; individual measurement; read-out: IC50 (μM) PHD2
Sequence of PHD2 (EGLN1) (Q9GZT9 whole entry): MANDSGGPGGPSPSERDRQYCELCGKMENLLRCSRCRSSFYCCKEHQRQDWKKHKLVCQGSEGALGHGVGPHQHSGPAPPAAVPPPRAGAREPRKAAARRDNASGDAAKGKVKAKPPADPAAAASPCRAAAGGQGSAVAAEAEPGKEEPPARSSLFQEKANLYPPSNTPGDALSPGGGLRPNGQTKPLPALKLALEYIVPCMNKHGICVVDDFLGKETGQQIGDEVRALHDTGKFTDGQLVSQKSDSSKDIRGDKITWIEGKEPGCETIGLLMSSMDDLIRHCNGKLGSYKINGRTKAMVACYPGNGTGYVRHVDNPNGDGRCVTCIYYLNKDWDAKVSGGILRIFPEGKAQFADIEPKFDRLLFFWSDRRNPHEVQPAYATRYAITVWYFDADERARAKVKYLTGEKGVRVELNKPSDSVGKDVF

Sequence of PHD1 (EGLN2) (Q96KS0 whole entry): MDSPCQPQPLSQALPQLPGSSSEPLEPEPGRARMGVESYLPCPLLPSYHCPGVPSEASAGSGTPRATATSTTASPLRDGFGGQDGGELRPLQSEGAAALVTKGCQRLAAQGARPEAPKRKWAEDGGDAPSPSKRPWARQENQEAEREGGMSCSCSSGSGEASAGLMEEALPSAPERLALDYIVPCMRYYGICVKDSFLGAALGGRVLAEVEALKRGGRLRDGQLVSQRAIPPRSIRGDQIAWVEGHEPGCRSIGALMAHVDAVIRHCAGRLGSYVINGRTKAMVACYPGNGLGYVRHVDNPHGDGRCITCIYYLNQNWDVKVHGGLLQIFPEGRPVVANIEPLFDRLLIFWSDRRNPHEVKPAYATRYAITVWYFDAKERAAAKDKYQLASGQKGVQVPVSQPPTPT

Row | IC50 [1] [µM] | PHD2/PHD1 [1] | IC50 [2] [µM] | Compound
1 | 0.13 | 6.5 | 0.86 | CC(C)(CNC(=O)c1nc(C#N)c2cc(Oc3ccc4ccccc4c3)ccc2c1O)C(=O)O [Compound 59, 3{-[1-Cyano-4-hydroxy-7-(naphthalen-2-yloxy)-isoquinoline-3-carbonyl]-amino}-2,2-dimethyl-propionic acid]
2 | 29 | 7 | 200 | Cc1nc(C(=O)NCCC(=O)O)c(O)c2ccc(Oc3ccccc3)cc12 [Compound 108, 3-[(4-Hydroxy-1-methyl-7-phenoxy-isoquinoline-3-carbonyl)-amino]-propionic acid]
3 | 19.8 | 10 | 200 | N#Cc1nc(C(=O)NCC2(C(=O)O)CCC2)c(O)c2ccc(S(=O)(=O)C3CCCCC3)cc12 [Compound 161, 1-{[(1-Cyano-7-cyclohexanesulfonyl-4-hydroxy-isoquinoline-3-carbonyl)-amino]-methyl}-cyclobutanecarboxylic acid]
4 | 2.55 | 12 | 30.9 | N#Cc1nc(C(=O)NCC(CC(=O)O)c2ccc(Cl)cc2)c(O)c2ccc(Oc3ccccc3)cc12 (stereo not drawn) [Compound 34, 3-(4-Chloro-phenyl)-4-[(1-cyano-4-hydroxy-7-phenoxy-isoquinoline-3-carbonyl)-amino]-butyric acid]
5 | 2.51 | 21 | 51.9 | N#Cc1nc(C(=O)NC[C@H](N)C(=O)O)c(O)c2ccc(Oc3ccccc3)cc12 [Compound 86, 2-(S)-Amino-3-[(1-cyano-4-hydroxy-7-phenoxy-isoquinoline-3-carbonyl)-amino]-propionic acid]
6 | 4.91 | 8 | 39.6 | O=C(O)CCNC(=O)c1ncc2cc(NC(=O)NC3CCCCC3)ccc2c1O [Compound 130, 3-{[7-(3-Cyclohexyl-ureido)-4-hydroxy-isoquinoline-3-carbonyl]-amino}-propionic acid]
7 | 14.1 | 7 | 93.3 | N#Cc1nc(C(=O)N[C@H]2CC[C@H](C(=O)O)CC2)c(O)c2ccc(Oc3ccccc3)cc12 [Compound 88, trans-4-[(1-Cyano-4-hydroxy-7-phenoxy-isoquinoline-3-carbonyl)-amino]-cyclohexanecarboxylic acid]
8 | 9.71 | 5 | 51.5 | O=C(NCC1(C(=O)O)CCOCC1)c1ncc2cc(Oc3ccccc3)ccc2c1O [Compound 15, 4-{[(4-Hydroxy-7-phenoxy-isoquinoline-3-carbonyl)-amino]-methyl}-tetrahydro-pyran-4-carboxylic acid]
9 | 5.5 | 8 | 46.7 | CC(C)(CNC(=O)c1ncc2cc(Oc3ccccc3)ccc2c1O)C(=O)O [Compound 2, 3-[(4-Hydroxy-7-phenoxy-isoquinoline-3-carbonyl)-amino]-2,2-dimethyl-propionic acid]
10 | 0.24 | 20 | 4.79 | CC(C)(CNC(=O)c1nc(C#N)c2cc(Oc3ccccc3Cl)ccc2c1O)C(=O)O [Compound 38, 3-(7-(2-Chlorophenoxy)-1-cyano-4-hydroxyisoquinoline-3-carboxamido)-2,2-dimethylpropanoic acid]
11 | 0.75 | 14 | 10.5 | N#Cc1nc(C(=O)NCC(C(=O)O)C2CC2)c(O)c2ccc(Oc3ccccc3F)cc12 (stereo not drawn) [Compound 177, 3{-[1-Cyano-7-(2-fluoro-phenoxy)-4-hydroxy-isoquinoline-3-carbonyl]-amino}-2-cyclopropyl-propionic acid]
12 | 1.28 | 24 | 30.2 | N#Cc1nc(C(=O)N[C@@H](CC(=O)O)c2ccccc2)c(O)c2ccc(Oc3ccccc3)cc12 [Compound 47, (S)-3-[(1-Cyano-4-hydroxy-7-phenoxy-isoquinoline-3-carbonyl)-amino]-3-phenyl-propionic acid]
